Test results published in ChEMBL document CHEMBL5331051, “Cationic, amphipathic small molecules based on a triazine-piperazine-triazine scaffold as a new class of antimicrobial agents” (Eur J Med Chem, 2022).
Values after ≈ are worked out from the molar mass of the structure shown. Active and inactive are the calls of the source. The rule behind the calls is not given here.

Tests used:
[1] = tested on: Escherichia coli; assay: Antibacterial activity against Escherichia coli KCTC 1682 strain assessed as bacterial growth inhibition measured at 18 to 24 hrs by microdilution assay; assay type: functional; conditions: time 18-24 hrs
[2] = tested on: Erythrocyte; assay: Hemolytic activity in sheep RBC assessed as minimal hemolytic concentration causing 10% hemolysis incubated for 1 hr by ELISA; assay type: toxicity, cell-based, Ovis aries
[3] = tested on: Escherichia coli; assay: Antibacterial activity against Escherichia coli KCTC 1682 strain assessed as bacterial growth inhibition measured at 18 to 24 hrs in presence of 150 mM NaCl by microdilution assay; assay type: functional; conditions: time 18-24 hrs
[4] = tested on: Escherichia coli; assay: Antibacterial activity against Escherichia coli KCTC 1682 strain assessed as bacterial growth inhibition measured at 18 to 24 hrs in presence of 6 uM NH4Cl by microdilution assay; assay type: functional; conditions: time 18-24 hrs
[5] = tested on: Escherichia coli; assay: Antibacterial activity against Escherichia coli KCTC 1682 strain assessed as bacterial growth inhibition measured at 18 to 24 hrs in presence of 2.5 mM CaCl2 by microdilution assay; assay type: functional; conditions: time 18-24 hrs
[6] = tested on: Escherichia coli; assay: Antibacterial activity against Escherichia coli KCTC 1682 strain assessed as bacterial growth inhibition measured at 18 to 24 hrs in presence of 4 uM FeCl3 by microdilution assay; assay type: functional; conditions: time 18-24 hrs
[7] = tested on: Staphylococcus aureus; assay: Antibacterial activity against Staphylococcus aureus KCTC 1621 strain assessed as bacterial growth inhibition measured at 18 to 24 hrs in presence of 1 mM MgCl2 by microdilution assay; assay type: functional; conditions: time 18-24 hrs
[8] = tested on: Staphylococcus aureus; assay: Antibacterial activity against Staphylococcus aureus KCTC 1621 strain assessed as bacterial growth inhibition measured at 18 to 24 hrs in presence of 2.5 mM CaCl2 by microdilution assay; assay type: functional; conditions: time 18-24 hrs
[9] = tested on: Staphylococcus aureus; assay: Antibacterial activity against methicillin-resistant Staphylococcus aureus CCARM 3095 strain assessed as bacterial growth inhibition measured at 18 to 24 hrs by microdilution assay; assay type: functional; conditions: time 18-24 hrs
[10] = tested on: Pseudomonas aeruginosa; assay: Antibacterial activity against multidrug-resistant Pseudomonas aeruginosa CCARM 2095 strain assessed as bacterial growth inhibition measured at 18 to 24 hrs by microdilution assay; assay type: functional; conditions: time 18-24 hrs
[11] = tested on: Pseudomonas aeruginosa; assay: Antibacterial activity against multidrug-resistant Pseudomonas aeruginosa CCARM 2109 strain assessed as bacterial growth inhibition measured at 18 to 24 hrs by microdilution assay; assay type: functional; conditions: time 18-24 hrs
[12] = tested on: Escherichia coli; assay: Antibacterial activity against Escherichia coli KCTC 1682 strain assessed as bacterial growth inhibition measured after 6 hrs in presence of trypsin by radial diffusion assay; assay type: functional, organism-based
[13] = tested on: Escherichia coli; assay: Antibacterial activity against Escherichia coli KCTC 1682 strain assessed as bacterial growth inhibition measured after 6 hrs in presence of chymotrypsin by radial diffusion assay; assay type: functional, organism-based
[14] = tested on: Escherichia coli; assay: Antibacterial activity against Escherichia coli KCTC 1682 strain assessed as bacterial growth inhibition measured after 6 hrs in presence of pepsin by radial diffusion assay; assay type: functional, organism-based
[15] = tested on: Escherichia coli; assay: Antibacterial activity against Escherichia coli KCTC 1682 strain assessed as bacterial growth inhibition measured after 6 hrs in presence of proteinase K by radial diffusion assay; assay type: functional, organism-based
[16] = tested on: Lipopolysaccharide (LPS); assay: Binding affinity to Escherichia coli O111:B4 lipopolysaccharide assessed as suppression of FTIC labeled LPS binding to mouse RAW264.7 cells at 20 ug/ml pretreated with LPS followed by compound addition by flow cytometer assay (reference value: 67.4%); assay type: cell-based; conditions: dose 20.0 µg/ml
[17] = tested on: Cell membrane; assay: Induction of cell membrane depolarization in Staphylococcus aureus assessed as fluorescence intensity at 2 to 16 times MIC by DiSC3(5) dye based fluorescence assay; assay type: subcellular
[18] = tested on: Cell membrane; assay: Induction of cell membrane depolarization in Staphylococcus aureus assessed as increase in fluorescence intensity at 2 times MIC by SYTOX green staining based analysis
[19] = tested on: Cell membrane; assay: Induction of inner membrane permeabilization in Escherichia coli ML-35 assessed as increase in […] at 2 times MIC by ONPG staining based analysis
[20] = tested on: DNA; assay: Binding affinity to plasmid DNA (unknown origin) assessed as retardation of DNA migration at 4 to 8 ug/ml incubated for 1 hr by agarose gel electrophoresis method; assay type: nucleic-acid assay; conditions: dose 4-8 µg/ml
[21] = tested on: Pseudomonas aeruginosa; assay: Synergistic antibacterial activity against multidrug-resistant Pseudomonas aeruginosa CCARM 2095 strain assessed as oxacillin MIC by checkerboard assay; assay type: functional
[22] = tested on: Pseudomonas aeruginosa; assay: Synergistic antibacterial activity against multidrug-resistant Pseudomonas aeruginosa CCARM 2095 strain assessed as bacterial growth inhibition in presence of ciprofloxacin by checkerboard assay; assay type: functional
[23] = tested on: Pseudomonas aeruginosa; assay: Synergistic antibacterial activity against multidrug-resistant Pseudomonas aeruginosa CCARM 2095 strain assessed as ciprofloxacin fractional inhibitory concentration by checkerboard assay; assay type: functional
[24] = tested on: Pseudomonas aeruginosa; assay: Synergistic antibacterial activity against multidrug-resistant Pseudomonas aeruginosa CCARM 2095 strain assessed as oxacillin fractional inhibitory concentration by checkerboard assay; assay type: functional
[25] = tested on: Pseudomonas aeruginosa; assay: Synergistic antibacterial activity against multidrug-resistant Pseudomonas aeruginosa CCARM 2095 strain assessed as chloramphenicol fractional inhibitory concentration in presence of chloramphenicol by checkerboard assay; assay type: functional
[26] = tested on: Pseudomonas aeruginosa; assay: Synergistic antibacterial activity against multidrug-resistant Pseudomonas aeruginosa CCARM 2095 strain assessed as fractional inhibitory concentration index in presence of ciprofloxacin by checkerboard assay; assay type: functional
[27] = tested on: Staphylococcus aureus; assay: Synergistic antibacterial activity against methicillin-resistant Staphylococcus aureus CCARM 3089 strain assessed as ciprofloxacin MIC by checkerboard assay; assay type: functional
[28] = tested on: Staphylococcus aureus; assay: Synergistic antibacterial activity against methicillin-resistant Staphylococcus aureus CCARM 3089 strain assessed as oxacillin MIC by checkerboard assay; assay type: functional
[29] = tested on: Staphylococcus aureus; assay: Synergistic antibacterial activity against methicillin-resistant Staphylococcus aureus CCARM 3089 strain assessed as bacterial growth inhibition in presence of oxacillin by checkerboard assay; assay type: functional
[30] = tested on: Staphylococcus aureus; assay: Synergistic antibacterial activity against methicillin-resistant Staphylococcus aureus CCARM 3089 strain assessed as fractional inhibitory concentration in presence of oxacillin by checkerboard assay; assay type: functional
[31] = tested on: Staphylococcus aureus; assay: Synergistic antibacterial activity against multidrug-resistant Staphylococcus aureus CCARM 3089 strain assessed as fractional inhibitory concentration index in presence of oxacillin by checkerboard assay; assay type: functional
[32] = tested on: Pseudomonas aeruginosa; assay: Antibiofilm activity against multidrug-resistant Pseudomonas aeruginosa assessed as inhibition of biofilm formation; assay type: functional
[33] = tested on: RAW264.7; assay: Antiinflammatory activity in LPS-induced mouse RAW264.7 cells assessed as reduction in NO production at 5 ug/ml measured after 72 hrs by ELISA assay relative to control; assay type: functional
[34] = tested on: RAW264.7; assay: Antiinflammatory activity in LPS-induced mouse RAW264.7 cells assessed as reduction in TNF alpha level at 20 ug/ml measured after 72 hrs by ELISA assay relative to control; assay type: functional
[35] = tested on: RAW264.7; assay: Antiinflammatory activity in LPS-induced mouse RAW264.7 cells assessed as reduction in iNOS mRNA expression level at 5 ug/ml measured after 18 hrs by RT-PCR assay relative to control; assay type: functional, cell-based; conditions: dose 5.0 µg/ml
[36] = tested on: Staphylococcus aureus; assay: Additive antibacterial activity against methicillin-resistant Staphylococcus aureus CCARM 3089 strain assessed as bacterial growth inhibition in presence of chloramphenicol by checkerboard assay; assay type: functional
[37] = tested on: Staphylococcus aureus; assay: Additive antibacterial activity against multidrug-resistant Staphylococcus aureus CCARM 3089 strain assessed as fractional inhibitory concentration index in presence of chloramphenicol by checkerboard assay; assay type: functional

`NCCCN(CCCN)c1nc(NCc2ccccc2)nc(N2CC(Cc3ccccc3)N(c3nc(NCc4ccccc4)nc(N(CCCN)CCCN)n3)CC2Cc2ccccc2)n1` (centres undefined) was tested, and the MIC [1] was 5 µM (≈ 4.47 µg/mL), the MHC [2] was > 318.5 µM and the MIC [3] was 2.5 µM. The MIC [4] was 5 µM, the MIC [5] was 5 µM and the MIC [6] was 5 µM. It also gave an MIC [7] of 10 µM, an MIC [8] of 5 µM and an MIC [9] of 5 µM (≈ 4.47 µg/mL). The MIC [10] was 20 µM (≈ 17.9 µg/mL), the MIC [11] was 10 µM (≈ 8.93 µg/mL) and the Activity [12] was “Active”. For the same compound, the Activity [13] was “Active”, the Activity [14] was “Active” and the Activity [15] was “Active”. For the same compound, the Flu intensity [16] was 13.2%, the Activity [17] was “inactive” and the Activity [18] was “inactive”. The Activity [19] was “inactive”, the Activity [20] was “Active” and the MIC [21] was 256 µg/mL. It also gave an MIC [22] of 4 µg/mL, an FIC [23] of 0.063 and an FIC [24] of 0.25. For the same compound, the FIC [25] was 0.25, the “fractional inhibitory concentration index (FICI)” value [26] was 0.312 and the MIC [27] was 64 µg/mL. The MIC [28] was 128 µg/mL, the MIC [29] was 1 µg/mL and the FIC [30] was 0.25. For the same compound, the “fractional inhibitory concentration index (FICI)” value [31] was 0.375, the MBEC50 [32] was 10 µM and the MBEC90 [32] was 39.8 µM. It also gave an MBIC [32] of 10 µM, an MBIC50 [32] of 5 µM and an inhibition at 5 µg/mL [33] of 75.7%. For the same compound, the inhibition at 20 µg/mL [34] was 95.4% and the Activity [35] was “Active”.

For `NCCNc1nc(NCCN)nc(N2CC(Cc3ccccc3)N(c3nc(NCCN)nc(NCCN)n3)CC2Cc2ccccc2)n1` (centres undefined), the MIC [1] was 6.1 µM (≈ 4.01 µg/mL), the MHC [2] was > 389.1 µM and the MIC [3] was 6.1 µM. It also gave an MIC [4] of 6.1 µM, an MIC [5] of 6.1 µM and an MIC [6] of 12.2 µM. The MIC [7] was 6.1 µM, the MIC [8] was 6.1 µM and the MIC [9] was 12.2 µM (≈ 8.01 µg/mL). For the same compound, the MIC [10] was 24.3 µM (≈ 16 µg/mL), the MIC [11] was 24.3 µM (≈ 16 µg/mL) and the Activity [12] was “Active”. The Activity [13] was “Active”, the Activity [14] was “Active” and the Activity [15] was “Active”. For the same compound, the Flu intensity [16] was 21.4%, the Activity [17] was “inactive” and the Activity [18] was “inactive”. The Activity [19] was “inactive”, the Activity [20] was “Active” and the MIC [22] was 4 µg/mL. The FIC [23] was 0.25, the “fractional inhibitory concentration index (FICI)” value [26] was 0.5 and the MIC [28] was 256 µg/mL. It also gave an MIC [36] of 16 µg/mL, an MIC [29] of 8 µg/mL and an FIC [30] of 0.25. The “fractional inhibitory concentration index (FICI)” value [37] was 0.75, the “fractional inhibitory concentration index (FICI)” value [31] was 0.5 and the MBEC50 [32] was 24.3 µM. It also gave an MBEC90 [32] of 97.3 µM, an MBIC [32] of 24.3 µM and an MBIC50 [32] of 3 µM. The inhibition at 5 µg/mL [33] was 31.5%, the inhibition at 20 µg/mL [34] was 72.4% and the Activity [35] was “Active”.
